Reference: patent publication US20110098269A1, “Substituted Pyridazinone Derivatives as Histamine-3 (H3) Receptor Ligands” (Cephalon, Inc., priority 2008, published 2011)
Counter-ions that a name gives are not always drawn.

Key:
[1] = molecular target: T1, rat histamine H3 receptor (Rattus norvegicus, UniProt Q9QYN8); assay: Rat H3 radioligand binding ([3H]-N-alpha-methylhistamine, CHO-A3 cell membranes); conditions: Rat H3 binding constant, class symbols; read-out: rH3 Ki
T1 construct: encoding the entire 445-amino-acid rat histamine H3 receptor; expressed in transfected cells
T1 sequence (Q9QYN8 whole entry): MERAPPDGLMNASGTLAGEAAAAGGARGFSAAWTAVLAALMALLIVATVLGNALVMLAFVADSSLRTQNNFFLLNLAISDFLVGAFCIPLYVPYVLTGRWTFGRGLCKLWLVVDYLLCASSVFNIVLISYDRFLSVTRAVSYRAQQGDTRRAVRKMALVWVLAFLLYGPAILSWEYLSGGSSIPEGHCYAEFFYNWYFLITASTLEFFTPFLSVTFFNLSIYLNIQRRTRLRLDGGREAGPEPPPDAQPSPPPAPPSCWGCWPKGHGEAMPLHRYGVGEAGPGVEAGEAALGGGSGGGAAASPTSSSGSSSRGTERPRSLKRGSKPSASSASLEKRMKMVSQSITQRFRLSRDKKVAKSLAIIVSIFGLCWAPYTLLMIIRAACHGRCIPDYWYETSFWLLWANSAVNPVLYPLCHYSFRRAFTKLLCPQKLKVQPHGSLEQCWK
Source text: Cell line development and membrane preparation. The rat H3 receptor cDNA was PCR amplified from reverse-transcribed RNA pooled from rat thalamus, hypothalamus, striatum and prefrontal cortex with a sequence corresponding to by #338-1672 of Genbank file #NM_053506, encoding the entire 445-amino-acid rat histamine H3 receptor. This was engineered into the pIRES-neo3 mammalian expression vector, which was stably transfected into the CHO-A3 cell line (Euroscreen, Belgium), followed by clonal selection by limiting dilution. Cells were harvested and cell pellets were frozen (−80° C.). Cell pellets were resuspended in 5 mM Tris-HCl, pH 7.5 with 5 nM EDTA and a cocktail of protease inhibitors (Complete Protease Inhibitor Tablets, Roche Diagnostics). Cells were disrupted using a polytron cell homogenizer and the suspension was centrifuged at 1000×g for 10 minutes at 4° C. The pellet was discarded and the supernatant centrifuged at 40,000×g for 30 min at 4° C. This membrane pellet was washed in membrane buffer containing 50 mM Tris-HCl, pH 7.5 with 0.6 mM EDTA, 5 mM MgCl2 and protease inhibitors, recentrifuged as above and the final pellet resuspended in membrane buffer plus 250 mM sucrose and frozen at −80° C.
(§1) Radioligand Binding. Membranes were resuspended in 50 mM Tris HCl (pH 7.4), 5 mM MgCl2, 0.1% BSA. The membrane suspensions (10 μg protein per well) were incubated in a 96 well microtiter plate with [^3H]-N-alpha-methylhistamine (approximately 1 nM final concentration), test compounds at various concentrations (0.01 nM-30 μM) and scintillation proximity beads (Perkin Elmer, FlashBlueGPCR Scintillating Beads) in a final volume of 80 μl for 4 hours at room temperature, protected from light. Non-specific binding was determined in the presence of 10 μM clobenpropit. Radioligand bound to receptor, and therefore in proximity to the scintillation beads, was measured using a MicroBeta scintillation counter.

human H3 receptor = molecular target: T2, human H3 receptor (Homo sapiens, UniProt Q9Y5N1); assay: Human H3 radioligand binding ([3H]-N-alpha-methylhistamine, CHO cell membranes); conditions: Human H3 binding constant, class symbols; read-out: hH3 Ki
T2 construct: expressed in transfected cells
T2 sequence (Q9Y5N1 whole entry): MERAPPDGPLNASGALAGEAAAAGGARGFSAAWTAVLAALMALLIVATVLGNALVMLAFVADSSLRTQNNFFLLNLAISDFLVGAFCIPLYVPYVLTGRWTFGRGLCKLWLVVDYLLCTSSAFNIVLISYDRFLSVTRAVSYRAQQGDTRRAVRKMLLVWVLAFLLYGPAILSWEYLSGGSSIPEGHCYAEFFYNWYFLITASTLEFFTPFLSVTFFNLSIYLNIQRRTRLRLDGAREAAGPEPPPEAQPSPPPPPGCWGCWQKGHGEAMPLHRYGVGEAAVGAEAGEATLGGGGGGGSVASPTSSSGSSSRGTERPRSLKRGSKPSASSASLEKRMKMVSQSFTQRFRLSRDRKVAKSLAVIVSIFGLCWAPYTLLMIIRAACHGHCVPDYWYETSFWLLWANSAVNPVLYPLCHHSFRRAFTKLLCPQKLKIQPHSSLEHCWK
Protocol: Methods: CHO cells stably expressing the human H3 receptor (GenBank: NM_007232) were harvested and cell pellets were frozen (−80° C.). Cell pellets were resuspended in 5 mM Tris-HCl, pH 7.5 with 5 nM EDTA and a cocktail of protease inhibitors (Complete Protease Inhibitor Tablets, Roche Diagnostics). Cells were disrupted using a polytron cell homogenizer and the suspension was centrifuged at 1000×g for 10 minutes at 4° C. The pellet was discarded and the supernatant centrifuged at 40,000×g for 30 min at 4° C. This membrane pellet was washed in membrane buffer containing 50 mM Tris-HCl, pH 7.5 with 0.6 mM EDTA, 5 mM MgCl2 and protease inhibitors, recentrifuged as above and the final pellet resuspended in membrane buffer plus 250 mM sucrose and frozen at −80° C.
as §1

| Ki [1] | Ki (human H3 receptor) | Compound | melting point |
| --- | --- | --- | --- |
|  |  | CC(C)N1CCc2ccc(-c3ccc(=O)n(C)n3)cc2CC1 (as salt: HCl) [Example 22, 6-(3-Isopropyl-2,3,4,5-tetrahydro-1H-benzo[d]azepin-7-yl)-2-methyl-2H-pyridazin-3-one. HCl] | 254 to 256 °C |
| 100 to 1000 nM | < 100 nM | Cn1nc(-c2ccc3c(c2)CCN(C2CCCC2)CC3)ccc1=O [Example 23, 6-(3-Cyclopentyl-2,3,4,5-tetrahydro-1H-benzo[d]azepin-7-yl)-2-methyl-2H-pyridazin-3-one. HCl] |  |
|  | > 1000 nM | CS(=O)(=O)c1ccc(-n2nc(-c3ccc4c(c3)CCNCC4)ccc2=O)cc1 [Example 24, 2-(4-Methanesulfonyl-phenyl)-6-(2,3,4,5-tetrahydro-1H-benzo[d]azepin-7-yl)-2H-pyridazin-3-one] |  |
| < 100 nM | < 100 nM | Cn1ncc(Oc2ccc3c(c2)CCN(C2CCC2)CC3)c(Cl)c1=O [Example 30, 4-Chloro-5-(3-cyclobutyl-2,3,4,5-tetrahydro-1H-benzo[d]azepin-7-yloxy)-2-methyl-2H-pyridazin-3-one] |  |
| < 100 nM | < 100 nM | Cn1ncc(Oc2ccc3c(c2)CCN(C2CCC2)CC3)c(Br)c1=O [Example 31, 4-Bromo-5-(3-cyclobutyl-2,3,4,5-tetrahydro-1H-benzo[d]azepin-7-yloxy)-2-methyl-2H-pyridazin-3-one] |  |
| < 100 nM | < 100 nM | Cn1ncc(Oc2ccc3c(c2)CCN(C2CCCC2)CC3)c(Br)c1=O [Example 32, 4-Bromo-5-(3-cyclopentyl-2,3,4,5-tetrahydro-1H-benzo[d]azepin-7-yloxy)-2-methyl-2H-pyridazin-3-one] |  |
| < 100 nM | < 100 nM | O=c1c(Cl)c(Oc2ccc3c(c2)CCN(C2CCC2)CC3)cnn1-c1ccccn1 [Example 33, 4-Chloro-5-(3-cyclobutyl-2,3,4,5-tetrahydro-1H-benzo[d]azepin-7-yloxy)-2-pyridin-2-yl-2H-pyridazin-3-one] |  |
| 100 to 1000 nM | < 100 nM | O=c1c(Cl)c(Oc2ccc3c(c2)CCN(C2CCC2)CC3)cnn1CC(F)(F)F [Example 34, 4-Chloro-5-(3-cyclobutyl-2,3,4,5-tetrahydro-1H-benzo[d]azepin-7-yloxy)-2-(2,2,2-trifluoro-ethyl)-2H-pyridazin-3-one] |  |
| 100 to 1000 nM | < 100 nM | Cn1ncc(Oc2ccc3c(c2)CCN(C2CCC2)CC3)cc1=O [Example 35, 5-(3-Cyclobutyl-2,3,4,5-tetrahydro-1H-benzo[d]azepin-7-yloxy)-2-methyl-2H-pyridazin-3-one] |  |
| 100 to 1000 nM | < 100 nM | Cn1ncc(Oc2ccc3c(c2)CCN(C2CCCC2)CC3)cc1=O [Example 36, 5-(3-Cyclopentyl-2,3,4,5-tetrahydro-1H-benzo[d]azepin-7-yloxy)-3-methyl-2H-pyridazin-3-one] |  |
| 100 to 1000 nM | < 100 nM | COCn1ncc(Oc2ccc3c(c2)CCN(C2CCC2)CC3)cc1=O [Example 37, 5-(3-Cyclobutyl-2,3,4,5-tetrahydro-1H-benzo[d]azepin-7-yloxy)-2-methoxymethyl-2H-pyridazin-3-one] |  |
| 100 to 1000 nM | < 100 nM | COCn1ncc(Oc2ccc3c(c2)CCN(C2CCCC2)CC3)cc1=O [Example 38, 5-(3-Cyclopentyl-2,3,4,5-tetrahydro-1H-benzo[d]azepin-7-yloxy)-2-methoxymethyl-2H-pyridazin-3-one] |  |
| 100 to 1000 nM | < 100 nM | O=C1NN=C(c2ccc3c(c2)CCN(C2CCC2)CC3)C2CC12 (centres unmarked) [Example 40, 5-(3-Cyclobutyl-2,3,4,5-tetrahydro-1H-benzo[d]azepin-7-yl)-3,4-diaza-bicyclo[4.1.0]hept-4-en-2-one] |  |
| < 100 nM | < 100 nM | Cn1nc(-c2ccc(C(=O)N3CCC[C@H]3CN3CCCC3)cc2)ccc1=O [Example 45, 2-Methyl-6-[4-((S)-2-pyrrolidin-1-ylmethyl-pyrrolidine-1-carbonyl)-phenyl]-2H-pyridazin-3-one] |  |
| 100 to 1000 nM | 100 to 1000 nM | Cn1nc(-c2ccc(C(=O)N3CCN4CCC[C@H]4C3)cc2)ccc1=O [Example 48, 6-[4-((S)-Hexahydro-pyrrolo[1,2-a]pyrazine-2-carbonyl)-phenyl]-2-methyl-2H-pyridazin-3-one] |  |
| 100 to 1000 nM | < 100 nM | O=C(c1ccc(-c2ccc(=O)n(-c3ccc(F)cc3)n2)cc1)N1CCC[C@H]1CN1CCCC1 [Example 49, 2-(4-Fluoro-phenyl)-6-[4-((S)-2-pyrrolidin-1-ylmethyl-pyrrolidine-1-carbonyl)-phenyl]-2H-pyridazin-3-one] |  |
| < 100 nM | < 100 nM | C[C@@H]1CCCN1CCc1ccc(-c2ccc(=O)n(-c3ccc(Cl)cc3)n2)cc1 [Example 52] |  |
| < 100 nM | < 100 nM | C[C@@H]1CCCN1CCc1ccc(-c2ccc(=O)n(Cc3ccccc3)n2)cc1 [Example 53] |  |
| 100 to 1000 nM | 100 to 1000 nM | CN(CCc1ccc(-c2ccc(=O)n(C)n2)cc1)C1CCCCC1 [Example 55] |  |
| 100 to 1000 nM | 100 to 1000 nM | CC(=O)N1CCN(CCc2ccc(-c3ccc(=O)n(C)n3)cc2)CC1 [Example 58] |  |
| 100 to 1000 nM | 100 to 1000 nM | Cn1nc(-c2ccc(CCN3CCC3)cc2)ccc1=O [Example 60] |  |
| 100 to 1000 nM | < 100 nM | CN(CCc1ccc(-c2ccc(=O)n(C)n2)cc1)C1CCC1 [Example 61] |  |
| 100 to 1000 nM | 100 to 1000 nM | CCN(CCc1ccc(-c2ccc(=O)n(C)n2)cc1)C1CCC1 [Example 62] |  |
| < 100 nM | < 100 nM | C[C@@H]1CCCN1CCc1ccc(-c2ccc(=O)n(C)n2)cc1 [Example 63] |  |
| 100 to 1000 nM | 100 to 1000 nM | Cn1nc(-c2ccc(CCN3CCCCC3)cc2)ccc1=O [Example 64] |  |
| 100 to 1000 nM | 100 to 1000 nM | O=c1ccc(-c2ccc(CCN3CCCCC3)cc2)nn1-c1ccccc1 [Example 65] |  |
| < 100 nM | < 100 nM | C[C@@H]1CCCN1CCc1ccc(-c2ccc(=O)n(-c3ccccc3)n2)cc1 [Example 66] |  |
| < 100 nM | < 100 nM | C[C@@H]1CCCN1CCc1ccc(-c2ccc(=O)n(-c3ccc(F)cc3)n2)cc1 [Example 67] |  |
| > 1000 nM | > 1000 nM | O=c1ccc(-c2ccc(CCN3CCOCC3)cc2)nn1-c1ccccc1 [Example 68] |  |
| 100 to 1000 nM | < 100 nM | C[C@@H]1CCCN1CCc1ccc(-c2ccc(=O)n(-c3ccccn3)n2)cc1 [Example 69] |  |

| Compound | Ki [1] | Ki (human H3 receptor) | melting point |
| --- | --- | --- | --- |
| CC(C)N1N=C(c2ccc3c(c2)CCNCC3)CCC1=O [Example 3, 2-Isopropyl-6-(2,3,4,5-tetrahydro-1H-benzo[d]azepin-7-yl)-4,5-dihydro-2H-pyridazin-3-one] | 100 to 1000 nM | 100 to 1000 nM |  |
| CC(C)n1nc(-c2ccc3c(c2)CCNCC3)ccc1=O [Example 5, 2-Isopropyl-6-(2,3,4,5-tetrahydro-1H-benzo[d]azepin-7-yl)-2H-pyridazin-3-one] | 100 to 1000 nM | 100 to 1000 nM |  |
| CC(C)N1CCc2ccc(-c3ccc(=O)n(C)n3)cc2CC1 [Example 22, 6-(3-Isopropyl-2,3,4,5-tetrahydro-1H-benzo[d]azepin-7-yl)-2-methyl-2H-pyridazin-3-one. HCl] | 100 to 1000 nM | 100 to 1000 nM |  |
| O=C1NN=C(c2ccc3c(c2)CCNCC3)C2CC12 (centres unmarked) [Example 39, 5-(2,3,4,5-Tetrahydro-1H-benzo[d]azepin-7-yl)-3,4-diaza-bicyclo[4.1.0]hept-4-en-2-one] | 100 to 1000 nM | 100 to 1000 nM |  |
| O=C1NN=C(c2ccc3c(c2)CCNCC3)C2CCCC12 (centres unmarked) [Example 41, 4-(2,3,4,5-Tetrahydro-1H-benzo[d]azepin-7-yl)-2,4-a,5,6,7,7a-hexahydro-cyclopenta[d]pyridazin-1-one] | 100 to 1000 nM | 100 to 1000 nM |  |
| CC(C)N(C)CCc1ccc(-c2ccc(=O)n(C)n2)cc1 [Example 54] | 100 to 1000 nM | 100 to 1000 nM |  |
| CCN(CC)CCc1ccc(-c2ccc(=O)n(C)n2)cc1 [Example 56] | 100 to 1000 nM | 100 to 1000 nM |  |
| CCNCCc1ccc(-c2ccc(=O)n(C)n2)cc1 [Example 57] | 100 to 1000 nM | 100 to 1000 nM |  |
